The record followed here is patent US20090192192A1, “INHIBITORS OF BIOFILM FORMATION OF GRAM-POSITIVE AND GRAM-NEGATIVE BACTERIA” (priority 2007, published 2009).

A value given as a limit tells only on which side of the number the result lay.

The assay deals with Pseudomonas aeruginosa PAO1. The experiment in a line: MBEC assay, biofilm formation of P. aeruginosa PAO1. The class given is cell-based. The conditions noted are these: compound concentration 100 μM, class symbols. As for the experimental part: The compound to be tested was dissolved in DMSO to obtain a concentration that was 100 times that of the final concentration required (1 mM for the 10 μM assay and 10 mM for the 100 μM assay). 1.5 μL of the above solution was placed into each well of a 96 well plate (final volume in each well=150 μL, final DMSO concentration of 1% (v/v)).
To grow the organism and form a biofilm, a cryogenic stock of the test organism (at −70° C.) was used. A first sub-culture was streaked out onto TSA (tryptic soy agar), upon which the plate was incubated at 35±2° C. for 24 hours and stored wrapped in parafilm at 4° C. afterwards. From this first sub-culture, a second sub-culture was streaked out onto TSA. The plate was incubated at 35±2° C. for 24 hours. The second sub-culture was used within 24 hours starting from the time it was first removed from incubation. Using the second sub-culture an inoculum in 3 mL sterile water that matches a 0.5 McFarland Standard (1.5×10^8 cells per mL) was created in a glass test tube using a sterile cotton swab. 2.2 mL of this solution was diluted in 22 mL 100% TSB (tryptic soy broth) medium to a cell density of approximately […]. The diluted organism was inverted 3-5 times to achieve uniform mixing of the organism. One sample (100 μl) of the diluted organism was used for an inoculum check by serially diluting and spot plating on TSA.
To prepare a challenge plate, […] of the diluted organism was added to each well of a 96 well plate except the sterility control wells. The test compounds were added to the wells to make up final concentrations of 10 μM and […] (1.5 μL/well) in the designated location in the test plate. 128.5 μL of 100% universal neutralizer (1% Tween 80 in Cation Adjusted Mueller Hinton Broth, CAMHB) was placed in each of the wells. 130 μL of media was added to the growth control wells. 128.5 μL of media+1.5 μL of DMSO were added to a second set of growth control wells. 150 μL of media was added to the sterility controls. Each sample was run in triplicate. The plate was covered by a lid with a peg per well and wrapped in parafilm and placed on a shaker in a humidified incubator (GeneVac) at 35±+2° C. for 24 hours set at 110 rpm.
Rinse plate(s) of 0.9% saline (200 μL per well) were prepared in a sterile 96 well microtitre plate. Lid-associated pegs were rinsed in 0.9% saline for approximately 1-2 minutes. The peg lid was transferred to the recovery media (1.0% Tween 80 in CAMHB) then sonicated for 30 minutes to dislodge surviving biofilm. Following sonication, 100 μL from each well of the 96 well plate was placed into the first 12 wells of the first row of a 96 well microtiter plate. 180 μl of 0.9% sterile saline was placed in the remaining rows. A serial dilution (10^0-10^7) was prepared by moving 20 μl down each of the 8 rows. 20 μl from each well was removed and spot plated on a prepared TSA. In the remaining recovery plate, 100 μl of fresh growth media (1.0% Tween 80 in CAMHB) was placed in each well to replace the amount removed. The recovery plate was covered with a regular lid and incubated at 35±2° C. for 24 hours and read visually to confirm antimicrobial activity of the test compounds.
The compounds of the present disclosure have been tested regarding their efficiency to inhibit biofilm formation of Staphylococcus aureus U of C#18 (MRSA), Staphylococcus aureus 456 (MRSA), Staphylococcus epidermidis RP62A, and Pseudomonas aeruginosa PAO1.

The inhibition is the change of the read-out against control, counted positive when it falls. As to `CCCCCCCCCCNC(=O)Nc1ccnn1C` [Example 61, 1-decyl-3-(1-methylpyrazol-5-yl)urea], the inhibition at 100 µM was 20 to 50%.

As for `CCCCCCCCCCCC(=O)N1CCC(C(=O)Nc2cc(C(C)(C)C)nn2C)C1` (stereo not drawn) [Example 154, N-(3-tert-butyl-1-methylpyrazol-5-yl)-1-dodecanoylpyrrolidine-3-carboxamide], the inhibition at 100 µM fell in the range of 20 to 50%.

As for `CCCCCCNC(=O)Nc1cc(C2CC2)nn1C` [Example 42, 1-(3-cyclopropyl-1-methylpyrazol-5-yl)-3-hexylurea], the inhibition at 100 µM fell in the range of 20 to 50%.

`CCCCCCCCCCCC(=O)N1CCC(C(=O)Nc2cc(C)nn2C)C1` (stereo not drawn) [Example 153, N-(1,3-dimethylpyrazol-5-yl)-1-dodecanoylpyrrolidine-3-carboxamide] displayed an inhibition at 100 µM greater than 50%.

Take `CCCCCCCCCCNC(=O)Nc1nc(-c2ccccc2)cs1` [Example 79, 1-decyl-3-(4-phenylthiazol-2-yl)urea]: the inhibition at 100 µM was 20 to 50%.

Regarding `CCCCCCCCCCCCCCNC(=O)Nc1cc(C(C)(C)C)nn1C` [Example 88, 1-(3-tert-butyl-1-methylpyrazol-5-yl)-3-tetradecylurea], the inhibition at 100 µM was greater than 50%.

Regarding `CCCCCCCCCCNC(=O)N[C@@H](C)c1ccccc1` [Example 59, (S)-1-decyl-3-(1-phenylethyl)urea], the inhibition at 100 µM was less than 20%.

As for `CCCCCCCCCCCC(=O)N1CCC(C(=O)Nc2ccc(F)cc2)C1` (stereo not drawn) [Example 152, 1-dodecanoyl-N-(4-fluorophenyl)pyrrolidine-3-carboxamide], the inhibition at 100 µM was 20 to 50%.

`CCCCCCCCNC(=O)Nc1cc(C)nn1C` [Example 44, 1-(1,3-dimethylpyrazol-5-yl)-3-octylurea] came in with an inhibition at 100 µM of 20 to 50%.

`CCCCOCCOCC(=O)Nc1ccc(F)cc1C(F)(F)F` [Example 120, 2-(2-butoxyethoxy)-N-(4-fluoro-2-(trifluoromethyl)phenyl)acetamide] registered an inhibition at 100 µM of 20 to 50%.

The compound `CCCCCCCCCCCC(=O)N1CCCC(C(=O)NCC(C)C)C1` (stereo not drawn) [Example 134, 1-dodecanoyl-N-isobutylpiperidine-3-carboxamide] returned an inhibition at 100 µM of 20 to 50%.

The compound `CCCCCCCCCCNC(=O)N(C)c1ccccc1C(F)(F)F` [Example 58, 3-decyl-1-methyl-1-(2-(trifluoromethyl)phenyl)urea] came in with an inhibition at 100 µM greater than 50%.

In turn, `CCCCCCCCCCCC(=O)N1CCC(C(N)=O)C1` (stereo not drawn) [Example 145, 1-dodecanoylpyrrolidine-3-carboxamide] came in with an inhibition at 100 µM greater than 50%.

`COCCOCCOCC(=O)N[C@@H](C)c1ccccc1` [Example 127, (S)-2-(2-(2-methoxyethoxy)ethoxy)-N-(1-phenylethyl)acetamide] had an inhibition at 100 µM of less than 20%.

Compound `CCCCCCCCCOCC(=O)Nc1cc(-c2ccccc2)nn1C` [Example 108, N-(1-methyl-3-phenylpyrazol-5-yl)-2-(nonyloxy)acetamide] had an inhibition at 100 µM greater than 50%.

`CCCCCCCCCCCC(=O)N1CCC(C(=O)N(C)C)C1` (stereo not drawn) [Example 147, 1-dodecanoyl-N,N-dimethylpyrrolidine-3-carboxamide] gave an inhibition at 100 µM greater than 50%.

The compound `CCCCCCCCCCNC(=O)Nc1cc(C)nn1C` [Example 63, 1-decyl-3-(1,3-dimethylpyrazol-5-yl)urea] came in with an inhibition at 100 µM of 20 to 50%.

In turn, `CCCCCCCCCCNC(=O)/N=c1/cc(-c2ccccc2)n(C)n1C` [Example 73, 1-decyl-3-(1,2-dimethyl-5-phenylpyrazol-3-ylidene)urea] displayed an inhibition at 100 µM greater than 50%.

On to `COCCOCCOCC(=O)Nc1cc(C)ns1` [Example 129, 2-(2-(2-methoxyethoxy)ethoxy)-N-(3-methylisothiazol-5-yl)acetamide], for which the inhibition at 100 µM is less than 20%.

As for `CCCCCCCCCCNC(=O)N(C)c1ccccc1F` [Example 50, 3-decyl-1-(2-fluorophenyl)-1-methylurea], the inhibition at 100 µM was in the range of 20 to 50%.

Regarding `CCCCCCCCCCCC(=O)N(C)c1ccc(F)cc1F` [Example 22, N-(2,4-difluorophenyl)-N-methyldodecanamide], the inhibition at 100 µM was greater than 50%.

In turn, `CCCCCCCCCCCC(=O)N[C@H]1CCOC1=O` [Example 33, N-dodecanoyl-L-homoserinelactone] returned an inhibition at 100 µM of less than 20%.

`CCCCCCCCCCCC(=O)N(C)c1cccc(F)c1` [Example 18, N-(3-fluorophenyl)-N-methyldodecanamide] had an inhibition at 100 µM greater than 50%.

`CCCCCCCN(C)CCCC(=O)N1CCCC(C(=O)N(CC)CC)C1` (stereo not drawn) [Example 138, N,N-diethyl-1-(4-(heptyl(methyl)amino)butanoyl)piperidine-3-carboxamide]: the inhibition at 100 µM is less than 20%.

In turn, `CCN(CC)C(=O)C1CCCN(C(=O)CCCCCCN2CCN(C)CC2)C1` (stereo not drawn) [Example 140, N,N-diethyl-1-(7-(4-methylpiperazin-1-yl)heptanoyl)piperidine-3-carboxamide] displayed an inhibition at 100 µM of less than 20%.

`CCCCCCCCOCCC(=O)N1CCCC(C(=O)N(CC)CC)C1` (stereo not drawn) [Example 137, N,N-diethyl-1-(3-(octyloxy)propanoyl)piperidine-3-carboxamide]: the inhibition at 100 µM fell in the range of 20 to 50%.

In turn, `CCCCCCCCCCCC(=O)Nc1cc(C)nn1-c1ccccc1` [Example 31, N-(3-methyl-1-phenylpyrazol-5-yl)dodecanamide] had an inhibition at 100 µM of less than 20%.

The compound `CCCCCCCCCCCC(=O)N1CCC(C(=O)N(CC)CC)C1` (stereo not drawn) [Example 148, 1-dodecanoyl-N,N-diethylpyrrolidine-3-carboxamide] came in with an inhibition at 100 µM greater than 50%.

`CCCCNC(=O)Nc1cc(C)nn1C` [Example 38, 1-butyl-3-(1,3-dimethylpyrazol-5-yl)urea] had an inhibition at 100 µM of less than 20%.

For `CCCCCCCCCCCCCCNC(=O)Nc1cc(C)nn1C` [Example 87, 1-(1,3-dimethylpyrazol-5-yl)-3-tetradecylurea], the inhibition at 100 µM was less than 20%.

`CCCCCCCCOCCC(=O)N[C@H]1CCOC1=O` [Example 112, N-(3-octyloxypropanoyl)-L-homoserinelactone] yielded an inhibition at 100 µM of less than 20%.

`CCCCCCCCCCNC(=O)Nc1nnc(-c2ccccc2)s1` [Example 77, 1-decyl-3-(5-phenyl-1,3,4-thiadiazol-2-yl)urea]: the inhibition at 100 µM is less than 20%.

In turn, `CCCCCCCCCCCC(=O)Nc1ccccc1S(=O)(=O)O` [Example 27, 2-dodecanamidobenzenesulfonic acid] yielded an inhibition at 100 µM of 20 to 50%.

`CCCCCCCCCCCCNC(=O)Nc1cc(C(C)(C)C)nn1C` [Example 85, 1-(3-tert-butyl-1-methylpyrazol-5-yl)-3-dodecylurea] gave an inhibition at 100 µM greater than 50%.

The compound `CCCCCCCCCCNC(=O)N(C)c1ccc(F)cc1` [Example 54, 3-decyl-1-(4-fluorophenyl)-1-methylurea] gave an inhibition at 100 µM greater than 50%.

Turning to `CCCCCCCCCCCC(=O)Nc1cccc(F)c1` [Example 17, N-(3-fluorophenyl)dodecanamide], the inhibition at 100 µM was in the range of 20 to 50%.

In the case of `CCCCCCCCCOCC(=O)N[C@@H](C)c1ccccc1` [Example 104, (S)-2-(nonyloxy)-N-(1-phenylethyl)acetamide], the inhibition at 100 µM was greater than 50%.

In the case of `CCCCCCCCCCCC(=O)N[C@@H](C)c1ccccc1` [Example 28, (S)-N-(1-phenylethyl)dodecanamide], the inhibition at 100 µM was 20 to 50%.

Take `CCCCCCCCCCNC(=O)Nc1nnc(C(C)(C)C)s1` [Example 76, 1-(5-tert-butyl-1,3,4-thiadiazol-2-yl)-3-decylurea]: the inhibition at 100 µM was greater than 50%.

The compound `CCCCCCCCCCCCCCCCNC(=O)Nc1cc(C)nn1C` [Example 89, 1-(1,3-dimethylpyrazol-5-yl)-3-hexadecylurea] came in with an inhibition at 100 µM of less than 20%.

As for `CCCCCCCCCCCC(=O)Nc1ccccc1C(F)(F)F` [Example 23, N-(2-(trifluoromethyl)phenyl)dodecanamide], the inhibition at 100 µM was less than 20%.

As to `CCCCCCCCCC(=O)N[C@H]1CCOC1=O` [Example 32, N-decanoyl-L-homoserinelactone], the inhibition at 100 µM was less than 20%.
